The results in this text go back to patent US12428415B2, “Matriptase 2 inhibitors and uses thereof” (Disc Medicine, Inc., priority 2018, dated 2025).

The first assay deals with T1, Human Recombinant Matriptase 2 (Homo sapiens, UniProt Q8IU80).
T1 construct: purchased Enzo Life Sciences (an in-house preparation was also used) ALX-201-752-1
T1 sequence (Q8IU80 1-811): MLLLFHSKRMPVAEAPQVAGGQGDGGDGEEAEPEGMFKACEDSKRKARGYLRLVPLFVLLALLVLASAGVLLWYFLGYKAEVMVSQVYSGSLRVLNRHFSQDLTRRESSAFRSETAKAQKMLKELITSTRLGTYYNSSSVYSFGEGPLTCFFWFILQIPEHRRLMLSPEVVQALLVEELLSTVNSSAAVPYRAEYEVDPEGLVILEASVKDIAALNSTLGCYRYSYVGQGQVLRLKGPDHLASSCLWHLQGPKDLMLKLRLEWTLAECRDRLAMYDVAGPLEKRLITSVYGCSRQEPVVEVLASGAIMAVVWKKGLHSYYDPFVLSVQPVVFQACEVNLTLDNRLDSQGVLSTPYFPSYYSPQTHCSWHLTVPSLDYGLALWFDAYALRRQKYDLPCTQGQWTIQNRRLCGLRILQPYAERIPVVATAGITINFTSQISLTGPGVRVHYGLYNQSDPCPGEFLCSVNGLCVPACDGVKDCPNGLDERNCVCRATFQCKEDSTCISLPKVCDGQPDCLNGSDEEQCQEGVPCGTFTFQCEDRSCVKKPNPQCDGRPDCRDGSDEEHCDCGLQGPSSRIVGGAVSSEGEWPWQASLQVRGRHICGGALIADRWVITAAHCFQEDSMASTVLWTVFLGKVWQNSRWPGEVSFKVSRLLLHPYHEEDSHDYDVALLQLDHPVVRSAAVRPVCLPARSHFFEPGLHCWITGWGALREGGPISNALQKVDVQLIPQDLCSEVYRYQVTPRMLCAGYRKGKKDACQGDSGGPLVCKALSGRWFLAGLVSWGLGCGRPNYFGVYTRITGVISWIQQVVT
Nature of the assay: Matriptase 2 fluorescence based inhibition assay, Method B (50 mM TRIS pH 7.5, 150 mM NaCl, 0.01% gelatin). The format is biochemical. The conditions noted are these: 1 uM compound; Assay Used = B (Method B). In short, it runs like this:
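Commercial (7 nM) or in-house (15 nM) enzyme preincubated 30 min with compound at 25° C, then 100 μM Boc-Gln-Ala-Arg-AMC added; fluorescence (Ex 360/Em 480 nm) read at 60 min. 1% DMSO final. IC50 from variable-slope sigmoidal fit of % inhibition.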
Consider `N=C(N)c1ccc2c(CO)c(C(=O)N[C@H]3CC[C@H](N)CC3)n(Cc3cccc4ccccc34)c2c1` [Compound I-619], for which the “Mar-2 % inhibition at 1 uM” value is given as “A (A represents 0%≤I≤25%)”.

Still in this assay, the particulars now being: 1 uM compound; Assay Used = B (Method B); read-out: Mar-2 % inhibition at 1 uM.
Usually inhibition stands for the percentage by which the read-out fell short of the control. For `CCOC(=O)c1cc2ccc(C(=N)NC(=O)OCC(C)C)cc2n1Cc1cccc2ccccc12` [Compound I-719, Ethyl 6-(N-(isobutoxycarbonyl)carbamimidoyl)-1-(naphthalen-1-ylmethyl)-1H-indole-2-carboxylate], the inhibition at 1 µM was 0 to 25%.

On to `N=C(N)c1ccc2cc(C(=O)N[C@H]3CC[C@H](N)CC3)n(Cc3cccc4c(Br)cccc34)c2c1` [Compound I-792], for which the inhibition at 1 µM lay within 75 to 100%. In the case of `N=C(N)c1ccc2cc(C(=O)O)n(Cc3cc(Oc4cnccn4)cc4ccccc34)c2c1` [Compound I-625], the inhibition at 1 µM was in the range of 50 to 75%.

Turning to `N=C(N)c1ccc2cc(C(=O)O)n(Cc3cccc4ccccc34)c2n1` [Compound I-766], the inhibition at 1 µM fell in the range of 75 to 100%. As to `N=C(N)c1ccc2cc(C(=O)N[C@H]3CC[C@H](N)CC3)n(Cc3cccc4c(Oc5ccccc5)cccc34)c2c1` [Compound I-731], the inhibition at 1 µM lay in the range of 75 to 100%.

On to `N=C(N)c1ccc2cc(C(=O)Nc3ccc4ncccc4c3)n(Cc3cccc4ccccc34)c2c1` [Compound I-771], for which the inhibition at 1 µM is 25 to 50%. On the same count and under the same terms, then `N=C(N)c1ccc2cc(C(=O)N[C@H]3CC[C@H](N)CC3)n(Cc3cccc4cc(OCc5ccccc5)ccc34)c2c1` [Compound I-740], with 75 to 100%; and `N=C(N)c1ccc2cc(C(=O)N[C@H]3CC[C@H](N)CC3)n(Cc3cc(Oc4ccccc4)cc4ccccc34)c2c1` [Compound I-777], with 75 to 100%. The same measure, in the same setting: in the case of `Cn1c(C(=O)O)c(Cc2cc(Oc3ccccc3)cc3ccccc23)c2cc(C(=N)N)ccc21` [Compound I-606] it was 25 to 50%; in that of `CC(C)COC(=O)NC(=N)c1ccc2cc(C(=O)O)n(Cc3cccc4ccccc34)c2c1` [Compound I-791], 0 to 25%. The same measure, in the same setting: then `N=C(N)c1ccc2cc(C(=O)N[C@H]3CC[C@H](N)CC3)n(Cc3ccc(COCc4ccccc4)c4ccccc34)c2c1` [Compound I-781], with 75 to 100%; and `N=C(N)c1ccc2cc(C(=O)O)n(Cc3cc(Oc4ccncc4)cc4ccccc34)c2c1` [Compound I-632], with 50 to 75%; and `N=C(N)c1ccc2cc(C(=O)O)n(Cc3cc(Cc4ccccc4)cc4ccccc34)c2c1` [Compound I-649], with 0 to 25%. With `N=C(N)c1ccc2cc(C(=O)N[C@H]3CC[C@H](N)CC3)n(Cc3cc(O)cc4ccccc34)c2c1` [Compound I-694], the inhibition at 1 µM is 75 to 100%. Still for that read-out and setting: then `CO/N=C(\N)c1ccc2cc(C(=O)OC)n(Cc3cccc4ccccc34)c2n1` [Compound I-697, Methyl (Z)-6-(N′-methoxycarbamimidoyl)-1-(naphthalen-1-ylmethyl)-1H-pyrrolo[2,3-b]pyridine-2-carboxylate], with 0 to 25%; and `N=C(N)c1ccc2cc(C(=O)O)n(Cc3c(Cl)c(Sc4ccccc4)cc4ccccc34)c2c1` [Compound I-653], with 0 to 25%; and `N=C(N)c1ccc2cc(C(=O)N[C@H]3CC[C@H](N)CC3)n(Cc3cc(Oc4ccccc4F)cc4ccccc34)c2c1` [Compound I-615], with 75 to 100%.

For the molecule `N=C(N)c1ccc2cc(C(=O)N[C@H]3CC[C@H](N)CC3)n(-c3cc(CO)c4ccccc4c3)c2c1` [Compound I-681], the inhibition at 1 µM was 75 to 100%. Turning to `N#Cc1ccc(Cn2c(C(=O)N[C@H]3CC[C@H](N)CC3)cc3ccc(C(=N)N)cc32)c2ccccc12` [Compound I-691], the inhibition at 1 µM is 75 to 100%. On the same count and under the same terms, then `N=C(N)c1ccc2cc(C(=O)N[C@H]3CC[C@H](NC(N)=O)CC3)n(Cc3cccc4ccccc34)c2c1` [Compound I-736], with 50 to 75%; and `N/C(=N/O)c1ccc2cc(C(=O)O)n(Cc3cccc4ccccc34)c2c1` [Compound I-759], with 0 to 25%. Same read-out and setting: in the case of `N=C(N)c1ccc2cc(C(=O)N[C@H]3CC[C@H](N)CC3)n(Cc3c(Cl)c(Sc4ccccc4)cc4ccccc34)c2c1` [Compound I-652] it was 50 to 75%; in that of `N=C(N)c1ccc2cc(C(=O)O)n(Cc3cc(Oc4ncccn4)cc4ccccc34)c2c1` [Compound I-693], 75 to 100%.

The same assay, now with this note: 1 uM compound; Assay Used = B; read-out: Mar-2 % inhibition at 1 uM.
With `CNC(=N)c1ccc2cc(C(=O)NC3CCC(NC(=O)OC(C)(C)C)CC3)n(Cc3ccc4ccccc4c3)c2c1` (centres unmarked) [Compound I-412], the inhibition at 1 µM was in the range of 25 to 50%. With `CC(C)(C)OC(=O)NC(=N)c1ccc2cc(C(=O)N3CCC(CO)CC3)n(Cc3cccc4ccccc34)c2c1` [Compound I-426], the inhibition at 1 µM is 0 to 25%. The same measure, in the same setting: then `N=C(N)c1ccc2cc(C(=O)NCCCCN)n(Cc3cccc4ccccc34)c2c1` [Compound I-452], with 75 to 100%; and `N=C(N)c1ccc2c(F)c(C(=O)O)n(Cc3cccc4ccccc34)c2c1` [Compound I-577, 6-carbamimidoyl-3-fluoro-1-(naphthalen-1-ylmethyl)-1H-indole-2-carboxylic Acid], with 50 to 75%. Still for that read-out and setting: then `N=C(N)c1ccc2cc(C(=O)O)n(Cc3cc(Oc4nccs4)cc4ccccc34)c2c1` [Compound I-589], with 75 to 100%; and `N=C(N)c1ccc2cc(C(=O)Nc3nnn[nH]3)n(Cc3cc(Oc4ncccn4)cc4ccccc34)c2c1` [Compound I-572], with 50 to 75%. Still for that read-out and setting: in the case of `N=C(N)c1ccc2cc(C(=O)N3CCN(C(=O)CN)CC3)n(Cc3cccc4ccccc34)c2c1` [Compound I-431] it was 50 to 75%; in that of `CN(C(=O)c1cc2ccc(C(=N)N)cc2n1Cc1cccc2ccccc12)[C@H]1CC[C@H](N)CC1` [Compound I-451], 50 to 75%. Regarding `N=C(N)c1ccc2cc(C(=O)N[C@H]3CC[C@H](N)CC3)n(Cc3c(Cl)cccc3Cl)c2c1` [Compound I-503], the inhibition at 1 µM lay within 0 to 25%. Turning to `N=C(N)c1ccc2cc(C(=O)O)n(Cc3cc(Oc4ncccn4)cc4ccccc34)c2n1` [Compound I-544], the inhibition at 1 µM fell in the range of 25 to 50%. On the same count and under the same terms, then `COC(=O)NCCOC(=O)c1cc2ccc(C(=N)N)cc2n1Cc1cc(Oc2ncccn2)cc2ccccc12` [Compound I-583], with 75 to 100%; and `N#Cc1c(C(=O)N[C@H]2CC[C@H](N)CC2)n(Cc2cccc3ccccc23)c2cc(C(=N)N)ccc12` [Compound I-514, N-((1r,4r)-4-aminocyclohexyl)-6-carbamimidoyl-3-cyano-1-(naphthalen-1-ylmethyl)-1H-indole-2-carboxamide], with 0 to 25%. Same read-out and setting: in the case of `CC(C)(C)OC(=O)NC(=N)c1ccc2cc(C(=O)NCC3CCN(C(=O)OC(C)(C)C)CC3)n(Cc3cccc4ccccc34)c2c1` [Compound I-492, tert-butyl4-((6-(N-(tert-butoxycarbonyl)carbamimidoyl)-1-(naphthalen-1-ylmethyl)-1H-indole-2-carboxamido)methyl)piperidine-1-carboxylate] it was 25 to 50%; in that of `N=C(N)c1ccc2cc(C(=O)N[C@H]3CC[C@@H](N)CC3)n(-c3ccc4ccccc4c3)c2c1` [Compound I-491], 50 to 75%; in that of `N=C(N)c1ccc2cc(C(=O)O)n(Cc3cc(S(=O)(=O)Nc4ccccc4)cc4ccccc34)c2c1` [Compound I-585], 50 to 75%.

The same assay, now with this note: compound at 1 uM; Assay Used: B; read-out: Mar-2 % inhibition at 1 uM.
In the case of `N/C(=N\O)c1ccc2cc(C(=O)O[C@H]3CC[C@H](N)CC3)n(Cc3cccc4ccccc34)c2c1` [Compound I-810, (1r,4r)-4-aminocyclohexyl 6-((Z)—N′-hydroxycarbamimidoyl)-1-(naphthalen-1-ylmethyl)-1H-indole-2-carboxylate], the inhibition at 1 µM was in the range of 25 to 50%.

For `N=C(N)c1ccc2cc(C(=O)N[C@H]3CC[C@H](N)CC3)n(CCCc3cccc4ccccc34)c2c1` [Compound I-817], the inhibition at 1 µM lay within 0 to 25%. The same measure, in the same setting: in the case of `N=C(N)c1ccc2cc(C(=O)N[C@H]3CC[C@H](N)CC3)n(Cc3cccc4sc(C(=O)O)cc34)c2c1` [Compound I-815, 4-((2-(((1r,4r)-4-aminocyclohexyl)carbamoyl)-6-carbamimidoyl-1H-indol-1-yl)methyl) benzo[b]thiophene-2-carboxylic Acid] it was 50 to 75%.

Still in this assay, the particulars now being: read-out: Mar-2 % inhibition at 1 uM.
`N=C(NC(=O)Oc1ccccc1)c1ccc2cc(C(=O)OCc3ccccc3)n(Cc3cc(Oc4ncccn4)cc4ccccc34)c2c1` [Compound I-576]: the inhibition at 1 µM fell in the range of 0 to 25%.

As for `CCOC(=O)c1cc2ccc(C(=N)NC(=O)Oc3ccccc3)cc2n1Cc1cc(Oc2ccsc2)cc2ccccc12` [Compound I-579], the inhibition at 1 µM was 0 to 25%.
